The record followed here is ChEMBL document CHEMBL1142617, “Mycalamides C and D, cytotoxic compounds from the marine sponge Stylinos n. species” (J Nat Prod, 2000).

For the assay, the system named is P388. Description: Cytotoxicity against mouse P388 cells. It counts as functional, cell-based.

≈ marks a conversion by molar mass, not a printed value.

As to `C=C1C[C@](OC)([C@H](O)C(=O)N[C@H]2OCO[C@H]3[C@@H]2O[C@H](C[C@H](O)CO)C(C)(C)[C@@H]3OC)O[C@H](C)[C@@H]1C` [MYCALAMIDE A], the IC50 – broadly, the midpoint of a concentration-inhibition curve – was determined as 0.0011 µg/mL (≈ 0.00218 µM).
The value for `C=C1C[C@](OC)([C@H](O)C(=O)NC[C@H]2O[C@H](CO)C(C)(C)[C@H](O)[C@H]2O)O[C@H](C)[C@@H]1C` [MYCALAMIDE C] was 0.095 µg/mL (≈ 0.228 µM); that for `C=C1C[C@](OC)([C@H](O)C(=O)N[C@H]2OCO[C@H]3[C@@H]2O[C@H](C[C@H](O)CO)C(C)(C)[C@@H]3O)O[C@H](C)[C@@H]1C` [MYCALAMIDE D] was 0.035 µg/mL (≈ 0.0715 µM); that for `C=C1C[C@](OC)([C@H](O)C(=O)N[C@@H]2OCO[C@H]3[C@@H]2O[C@H](CO)C(C)(C)[C@@H]3OC)O[C@H](C)[C@@H]1C` [THEOPEDERIN E] was 0.0009 µg/mL (≈ 0.00196 µM).
